Measurements reported in US11059832B2, “HPK1 inhibitors and methods of using same” (University Health Network, priority 2015, dated 2021).

How the values were obtained:
Type in all cases: biochemical
LCK = biological target: T1, LCK (Homo sapiens, UniProt P06239); assay: LCK inhibition, FRET based Z'-LYTE Kinase Assay; details: 25 nM LCK, 180 μM ATP; read-out: IC50 Range Lck
T1 construct: purchased Invitrogen P3043
Method: (§1) FLT3 and LCK compound inhibition were determined using FRET based Z′-LYTE Kinase Assay Kit with Tyrosine 2 peptide as the substrate (Invitrogen cat #PV3191). […] The % inhibition values were determined according to the manufacturer's directions and IC50 values were obtained using a non-linear 4 point logistic curve fit (XLfit4, IDBS).

FLT3 = biological target: T2, FLT3 (Homo sapiens, UniProt P36888); assay: FLT3 inhibition, FRET based Z'-LYTE Kinase Assay; details: 1 nM FLT3, 940 μM ATP; read-out: IC50 Range Flt3
T2 construct: purchased Invitrogen PV3182
T2 sequence (P36888 27-993): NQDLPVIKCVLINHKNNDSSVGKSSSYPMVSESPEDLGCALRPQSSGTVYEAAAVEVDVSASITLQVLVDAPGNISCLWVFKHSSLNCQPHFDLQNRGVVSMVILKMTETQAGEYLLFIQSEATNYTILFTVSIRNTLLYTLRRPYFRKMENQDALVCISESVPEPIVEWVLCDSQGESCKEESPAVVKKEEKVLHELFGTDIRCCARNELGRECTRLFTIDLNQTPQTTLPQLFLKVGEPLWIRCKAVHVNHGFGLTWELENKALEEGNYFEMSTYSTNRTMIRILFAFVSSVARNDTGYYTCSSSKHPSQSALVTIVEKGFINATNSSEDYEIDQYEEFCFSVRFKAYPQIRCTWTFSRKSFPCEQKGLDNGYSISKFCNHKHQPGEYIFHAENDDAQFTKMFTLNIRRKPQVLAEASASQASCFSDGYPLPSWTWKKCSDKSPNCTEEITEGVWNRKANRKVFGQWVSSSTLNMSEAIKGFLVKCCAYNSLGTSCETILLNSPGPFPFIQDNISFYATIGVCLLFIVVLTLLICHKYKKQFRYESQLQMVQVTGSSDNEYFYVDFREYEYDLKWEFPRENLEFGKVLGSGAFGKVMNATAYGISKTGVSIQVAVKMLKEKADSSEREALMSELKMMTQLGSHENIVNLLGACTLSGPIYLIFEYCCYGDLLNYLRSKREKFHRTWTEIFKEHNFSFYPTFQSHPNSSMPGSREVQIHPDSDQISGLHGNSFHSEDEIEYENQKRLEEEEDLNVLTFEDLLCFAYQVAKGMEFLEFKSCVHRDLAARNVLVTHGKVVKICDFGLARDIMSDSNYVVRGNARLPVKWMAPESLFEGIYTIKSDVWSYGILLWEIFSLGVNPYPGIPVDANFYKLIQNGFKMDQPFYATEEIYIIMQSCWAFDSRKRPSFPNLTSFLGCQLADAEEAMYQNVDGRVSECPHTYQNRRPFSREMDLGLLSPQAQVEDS
Method: as §1

human HPK1 (MAP4K1) = biological target: T3, human HPK1 (MAP4K1) (Homo sapiens, UniProt Q92918); assay: HPK1 inhibition assay (indirect ELISA); details: GST-HPK1 0.6 nM, 12 μM ATP; read-out: IC50 Range HPK1
T3 construct: human HPK1 (aa 1-346); purchased Invitrogen PV6355
T3 sequence (Q92918 1-346): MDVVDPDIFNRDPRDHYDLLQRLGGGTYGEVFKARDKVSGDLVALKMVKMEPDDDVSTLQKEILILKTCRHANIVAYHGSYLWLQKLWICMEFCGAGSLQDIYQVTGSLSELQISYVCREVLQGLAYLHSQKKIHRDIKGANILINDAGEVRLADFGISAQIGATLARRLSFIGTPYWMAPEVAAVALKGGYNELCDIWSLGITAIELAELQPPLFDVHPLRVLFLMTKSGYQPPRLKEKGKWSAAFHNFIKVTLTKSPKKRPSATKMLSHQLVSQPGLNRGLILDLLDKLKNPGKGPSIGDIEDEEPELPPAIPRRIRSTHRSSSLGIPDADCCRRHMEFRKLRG
Method: Active HPK1 (MAP4K1) was purchased as an N-terminal GST fusion of human HPK1 (aa 1-346) from Invitrogen (cat #PV6355). HPK1 activity was measured using an indirect ELISA detection system. GST-HPK1 (0.6 nM) was incubated in the presence of 12 μM ATP (Sigma cat #A7699), 5 mM MOPS (pH 7.2), 2.5 mM β-glycerol-phosphate, 5 mM MgCl2, 0.4 mM EDTA, 1 mM EGTA, 0.05 mM DTT, in a 96 well microtitre plate pre-coated with 0.5 μg/well bovine myelin basic protein (MBP) (Millipore, cat #13-110). The reaction was allowed to proceed for 30 min, followed by 5 washes of the plate with Wash Buffer (phosphate buffered saline supplemented with 0.2% Tween 20), and incubation for 30 min with a 1:3000 dilution of anti-phospho-threonine rabbit polyclonal antibody (Cell Signaling cat #9381). The plate was washed 5 times with wash buffer, incubated for 30 min in the presence of goat anti-rabbit horse radish peroxidase conjugate (BioRad cat #1721019, 1:3000 concentration), washed an additional 5 times with wash buffer, and incubated in the presence of TMB substrate (Sigma cat #T0440). The colorimetric reaction was allowed to continue for 5 min, followed by addition of stop solution (0.5 N H2SO4), and quantified by detection at 450 nm with a monochromatic plate reader (Molecular Devices M5).
Compound inhibition was determined at either a fixed concentration (10 μM) or at a variable inhibitor concentration (typically 50 μM to 0.1 μM in a 10 point dose response titration). Compounds were pre-incubated in the presence of enzyme for 15 min prior to addition of ATP and the activity remaining quantified using the above described activity assay. The % inhibition of a compound was determined using the following formula; % inhibition=100×(1−(experimental value−background value)/(high activity control−background value)). The IC50 value was determined using a non-linear 4 point logistic curve fit (XLfit4, IDBS) with the formula; (A+(B/(1+((x/C)^D)))), where A=background value, B=range, C=inflection point, D=curve fit parameter.

T1 sequence (P06239 whole entry, species assumed): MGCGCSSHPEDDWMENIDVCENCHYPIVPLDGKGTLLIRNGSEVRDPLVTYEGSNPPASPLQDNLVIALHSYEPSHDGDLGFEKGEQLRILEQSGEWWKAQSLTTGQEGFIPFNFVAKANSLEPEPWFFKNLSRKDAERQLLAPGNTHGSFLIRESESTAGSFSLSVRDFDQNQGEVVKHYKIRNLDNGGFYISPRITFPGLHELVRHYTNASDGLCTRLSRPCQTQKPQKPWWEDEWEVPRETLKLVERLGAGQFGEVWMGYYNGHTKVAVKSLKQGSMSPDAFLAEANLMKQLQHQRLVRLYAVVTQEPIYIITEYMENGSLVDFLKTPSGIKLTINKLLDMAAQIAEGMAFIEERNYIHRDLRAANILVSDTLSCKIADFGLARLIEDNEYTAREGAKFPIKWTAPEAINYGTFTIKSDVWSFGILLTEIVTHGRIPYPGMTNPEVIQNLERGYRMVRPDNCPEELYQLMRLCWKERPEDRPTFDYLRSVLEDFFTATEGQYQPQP

SMILES	IC50 (LCK) [nM]	IC50 (FLT3) [nM]	IC50 (human HPK1 (MAP4K1)) [nM]
C[C@@H]1CN(c2ccc3nc(-c4c(N)c5sccc5[nH]c4=O)[nH]c3c2)C[C@H](C)N1C [Example A33, 7-amino-6-(6-(3r,5s)-rel-3,4,5-trimethylpiperazin-1-yl)-1H-benzo[d]imidazol-2-yl)thieno[3,2-b]pyridin-5(4H)-one]	50 to 500	≤ 50	≤ 50
CN1CCN(c2ccc3nc(-c4c(NC5CCOCC5)c5sccc5[nH]c4=O)[nH]c3c2)CC1 [Example A35, 6-(6-(4-methylpiperazin-1-yl)-1H-benzo[d]imidazol-2-yl)-7-((tetrahydro-2H-pyran-4-yl)amino)thieno[3,2-b]pyridin-5(4H)-one]	≤ 50	≤ 50	≤ 50
CN1CCN(c2ccc3nc(-c4c(NCC5CCOCC5)c5sccc5[nH]c4=O)[nH]c3c2)CC1 [Example A38, 6-(6-(4-methylpiperazin-1-yl)-1H-benzo[d]imidazol-2-yl)-7-(((tetrahydro-2H-pyran-4-yl)methyl)amino)thieno[3,2-b]pyridin-5(4H)-one]	≤ 50	≤ 50	≤ 50
CN1CCN(c2ccc3nc(-c4c(NC5CCNCC5)c5sccc5[nH]c4=O)[nH]c3c2)CC1 [Example A39, 6-(6-(4-methylpiperazin-1-yl)-1H-benzo[d]imidazol-2-yl)-7-(piperidin-4-ylamino)thieno[3,2-b]pyridin-5(4H)-one]	≤ 50	≤ 50	≤ 50
CN1CCN(c2ccc3nc(-c4c(N[C@H]5CC[C@@H](O)CC5)c5sccc5[nH]c4=O)[nH]c3c2)CC1 [Example A40, 7-(((1S,4S)-4-hydroxycyclohexyl)amino)-6-(6-(4-methylpiperazin-1-yl)-1H-benzo[d]imidazol-2-yl)thieno-[3,2-b]pyridin-5(4H)-one]	≤ 50	≤ 50	≤ 50
CN1CCN(c2ccc3nc(-c4c(N[C@H]5CCCC[C@@H]5O)c5sccc5[nH]c4=O)[nH]c3c2)CC1 [Example A41, 7-(((1S,2S)-2-hydroxycyclohexyl)amino)-6-(6-(4-methylpiperazin-1-yl)-1H-benzo[d]imidazol-2-yl)thieno[3,2-b]pyridin-5(4H)-one]	≤ 50	≤ 50	≤ 50
CN1CCN(c2ccc3nc(-c4c(N[C@H]5CCC[C@@H]5O)c5sccc5[nH]c4=O)[nH]c3c2)CC1 [Example A42, 7-(((1S,2S)-2-hydroxycyclopentyl)amino)-6-(6-(4-methylpiperazin-1-yl)-1H-benzo[d]imidazol-2-yl)thieno[3,2-b]pyridin-5(4H)-one]	≤ 50	≤ 50	≤ 50
CN1CCN(c2ccc3nc(-c4c(N[C@H]5CCCC[C@H]5O)c5sccc5[nH]c4=O)[nH]c3c2)CC1 [Example A44, 7-(((1S,2R)-2-hydroxycyclohexyl)amino)-6-(6-(4-methylpiperazin-1-yl)-1H-benzo[d]imidazol-2-yl)thieno[3,2-b]pyridin-5(4H)-one]	≤ 50	≤ 50	≤ 50
CN1CCC(Nc2c(-c3nc4ccc(N5CCOCC5)cc4[nH]3)c(=O)[nH]c3ccsc23)CC1 [Example A45, 7((1-methylpiperidin-4-yl)amino)-6-(6-morpholino-1H-benzo[d]imidazol-2-yl)thieno[3,2-b]pyridin-5(4H)-one]	≤ 50	≤ 50	≤ 50
CN1CCN(c2ccc3nc(-c4c(N[C@@H]5CCCC[C@@H]5O)c5sccc5[nH]c4=O)[nH]c3c2)CC1 [Example A46, 7-(((1R,2S)-2-hydroxycyclohexyl)amino)-6-(6-(4-methylpiperazin-1-yl)-1H-benzo[d]imidazol-2-yl)thieno[3,2-b]pyridin-5(4H)-one]	50 to 500	≤ 50	≤ 50
C[C@@H]1CN(c2ccc3nc(-c4c(NC5CCOCC5)c5sccc5[nH]c4=O)[nH]c3c2)C[C@H](C)N1C [Example A48, 7-((tetrahydro-2H-pyran-4-yl)amino)-6-(6-(3r,5s)-rel-3,4,5-trimethylpiperazin-1-yl)-1H-benzo[d]imidazol-2-yl)thieno[3,2-b]pyridin-5(4H)-one]	≤ 50	≤ 50	≤ 50
CN1CCN(c2ccc3nc(-c4c(NCc5cccnc5)c5sccc5[nH]c4=O)[nH]c3c2)CC1 [Example A52, 6-(6-(4-methylpiperazin-1-yl)-1H-benzo[d]imidazol-2-yl)-7-((pyridin-3-ylmethyl)amino)thieno[3,2-b]pyridin-5(4H)-one]	≤ 50	≤ 50	≤ 50
CN1CCN(c2ccc3nc(-c4c(NCc5ccccn5)c5sccc5[nH]c4=O)[nH]c3c2)CC1 [Example A53, 6-(6-(4-methylpiperazin-1-yl)-1H-benzo[d]imidazol-2-yl)-7-((pyridin-2-ylmethyl)amino)-thieno[3,2-b]pyridin-5(4H)-one]	≤ 50	≤ 50	≤ 50
CN1CCN(c2ccc3nc(-c4c(N[C@H]5CCNC[C@@H]5F)c5ccsc5[nH]c4=O)[nH]c3c2)CC1 [Example A54, 4-(((3S,4S)-3-fluoropiperidin-4-yl)amino)-5-(6-(4-methylpiperazin-1-yl)-1H-benzo[d]imidazol-2-yl)thieno[2,3-b]pyridin-6(7H)-one]	50 to 500	≤ 50	≤ 50
Cc1cc2[nH]c(-c3c(N)c4ccsc4[nH]c3=O)nc2cc1N1CCN(C)CC1 [Example A61, 4-amino-5-(6-methyl-5-(4-methylpiperazin-1-yl)-1H-benzo[d]imidazol-2-yl)thieno[2,3-b]pyridin-6(7H)-one]	50 to 500	≤ 50	≤ 50
Nc1c(-c2nc3ccc(N4CCNCC4)cc3[nH]2)c(=O)[nH]c2sccc12 [Example A64, 4-amino-5-(6-(piperazin-1-yl)-1H-benzo[d]imidazol-2-yl)thieno[2,3-b]pyridin-6(7H)-one]	50 to 500	≤ 50	≤ 50
Nc1c(-c2nc3ccc(N4CCN(C5COC5)CC4)cc3[nH]2)c(=O)[nH]c2sccc12 [Example A65, 4-amino-5-(6-(4-(oxetan-3-yl)piperazin-1-yl)-1H-benzo[d]imidazol-2-yl)thieno[2,3-b]pyridin-6(7H)-one]	50 to 500	≤ 50	≤ 50
